In patent US20150050410A1, “COMPOUNDS, COMPOSITIONS, AND METHODS FOR MODULATING SWEET TASTE” (Chromocell Corporation, priority 2013, published 2015):

Assays:
Format in all cases: in vivo
[1] = system: perception of the sweet taste in humans; experiment: Trained descriptive analysis (DA) panel, sweet attribute; conditions: 35 ppm; for compound effects beyond the additive effect of inherent sweetness: 4% fructose and 8% sucrose; for perceived sweetness compared to control sweetener solutions (FIG. 2): aqueous fructose and sucrose solutions at pH 3; for perceived sweetness compared to control sweetener solutions (FIG. 2) / perceived sweetness compared to control sweetener solutions (FIG. 1): ** p<0.01; for perceived sweetness compared to control sweetener solutions (FIG. 1): aqueous fructose and sucrose solutions at pH 7
Description: The effect of the test compounds on the perception of the sweet taste in an aqueous environment, in the absence or presence of carbohydrate sweeteners, was evaluated using a descriptive analysis methodology with a group of trained panelists, as follows.
Candidate panelists were recruited, with prescreening and personal interviews, and were assessed for their ability to detect, recognize and differentiate basic taste attributes or mixtures thereof as part of a standardized acuity test. These candidate panelists were also assessed for their innate ability to identify flavors, and to rank on intensity scales. Other senses such as smell and vision were also included as part of the assessment. Candidates also were screened for their ability to use the language to describe and articulate ideas.
Selected candidates proceeded to training as a group in three phases: (1) Lexicon development, (2) Concept alignment, and (3) Scaling descriptors. During lexicon development, panelists evaluated products appropriate for use in the study to generate and align on terms describing the flavor, taste, aromatic, trigeminal, and temporal attributes. During concept alignment, the panel evaluated the products mentioned above to clarify and confirm the attributes that were generated during lexicon development using reference standards that appropriately define each attribute; these are either physical references (e.g. sucrose solutions) or verbal descriptions (e.g. overall flavor). Product terms and concepts were validated during this portion of the study.
In the last phase, scaling descriptors, the panel participated in a series of exercises focused on ordering and ranking samples according to relative attribute intensity, measuring attribute intensity using a defined length of line scale. Whenever possible, different levels or concentration of references were used as anchors to facilitate use of the scale. Panelists were provided with blinded references at this stage to evaluate their understanding and perception of the scale.
The panel used in this example was trained to reference sweet attributes in an absolute manner, such that a particular concentration of sweetener is always measured by the panelists at the same point using a 15 cm line scale where each cm represents a 1% increase in sucrose to cover the range of 0% to 15% sucrose. For the rest of the attributes, the panel was trained using a hybrid approach between descriptive analysis methods (e.g. quantitative descriptive analysis, the sensory spectrum, etc.) well-known to those skilled in the art.
The trained panel was then used for a descriptive analysis assessment for Compounds 1, 2 and 3 in aqueous solutions at pH 3 and pH 7. Each of the three compounds was tested at 35 ppm in sucrose and fructose sweeteners. In addition, Compounds 1, 2 and 3 were also examined in water at pH 3 and pH 7 to assess for any inherent sweetness.
The aqueous sweetener solutions were prepared by adding, fructose or sucrose (by weight), to water to achieve the desired concentration. Aqueous sucrose solutions at pH 3 were buffered using a final concentration of 0.096% Citric Acid plus 0.036% Sodium Citrate while aqueous fructose solutions at pH 3 were buffered using a final concentration of 0.06% Citric Acid and 0.0225% Sodium Citrate.
Compounds were first prepared as a […] concentrated stock solution in 100% ethanol. These concentrated stocks were then added to the aqueous sweetener solutions to result in a final ethanol concentration of 0.2%. In addition to compounds, a solubilizing agent at a final concentration of 0.02% was added to the aqueous sweetener solutions. Control samples were also balanced with 0.2% ethanol and in certain cases 0.02% solubilizing agent.
Both control (aqueous sweetener solutions without compound) and variant (aqueous sweetener solutions with compound) samples were blinded and randomized (by sweetener and pH blocks). […]

[2] = system: perception of the sweet taste of an aqueous solution of sweetener in humans; experiment: Two-alternative forced choice "sip and spit" method (2AFC); conditions: for Fold increase in perceived sweetness: positive control conc. / test sample conc.
Description: The taste test panelists used in the Examples 1-3 were selected using a sensory acuity screening program. Candidate taste panelists were recruited, with prescreening and personal interviews, and were assessed and for their ability to detect, recognize and differentiate basic taste attributes or mixtures thereof as part of a standardized acuity test. This included basic tastes of sweet, sour, salty, bitter and umami, as well as having the capacity to focus on specific aspects of sensory character such as ranking the various tastes perceived and identifying the basic tastes presented at threshold levels.
The effect of the test compounds on the perception of the sweet taste of an aqueous solution of sweetener in humans was evaluated using a two-alternative forced choice “sip and spit” method (2AFC).
(§1) The aqueous sweetener solutions were prepared by adding, fructose, sucrose or glucose (by weight), to water to achieve the desired concentration.
Compounds were first prepared as a 500-fold concentrated stock solution in 100% ethanol. These concentrated stocks were then added to the aqueous sweetener solutions to result in a final ethanol concentration of 0.2%. The control (positive and negative) samples were also normalized to 0.2% ethanol. This level of ethanol was not seen to contribute any perceived sweetness.
The 2AFC test used for compound evaluation was a blind and randomized test where taste panelists (n=15) evaluate a pair of sweetener solutions at a time one sample contains aqueous sweetener solution plus compound (i.e. test) while the other contains aqueous sweetener solution at higher concentration without compound (i.e. positive control). Each test sample was compared against a positive control. For example, if the test sample contained 1× sweetener concentration with compound (e.g. 5% sucrose with compound), the positive control sample contained a 1.1× sweetener concentration (e.g. 5.5% sucrose without compound).
Panelists were instructed not to eat or drink (except water) for at least 1 h before the test. During the test, panelists were instructed to sip each sample, swirl it around their mouth and then expectorate. After tasting each sample in the pair, panelists were instructed to record the sample that is “sweeter” in taste. Panelists cleansed their palates by rinsing with water, eating a cracker and waiting for an interval of about 5 minutes. Each pair was tasted twice. All samples were tasted at ambient temperatures. Data were analyzed using binomial probabilities.
Approximate levels of sweetness enhancement in column 5 of Table 2 were calculated as follows:
Approximate levels of sweetness enhancement=Sweetener concentration of positive control surpassed by the test sample, divided by sweetener concentration for compound-containing sample (e.g. 1.15×=5.75% sucrose/5% sucrose).

[3] = system: perception of the sweet taste of an aqueous solution of sweetener in humans; experiment: Ranking "sip and spit" assessment of sweetness perception (R index); conditions: test sample 5% sucrose; compound 10 ppm; vs negative control; R index >=60 = significantly different
Description: The effect of the test compounds on the perception of the sweet taste of an aqueous solution of sweetener in humans was evaluated using a ranking “sip and spit” method.
as §1
Compounds were first prepared as a 500-fold concentrated stock solution in 100% ethanol. These concentrated stocks were then added to the aqueous sweetener solutions to result in a final ethanol concentration of 0.2%. The control (positive and negative) samples were also normalized to 0.2% ethanol.
In the ranking test used for compound evaluation, taste panelists (n=15), rank samples in increasing order of sweetness. One set, comprising of 6 samples, was presented to each panelists at a given time and are asked to rank them in order of increasing sweetness.
Panelists were instructed not to eat or drink (except water) for at least 1 h before the test. During the test, panelists were instructed to sip each sample, swirl it around their mouth and then expectorate. After tasting each set, panelists were instructed to rank the 6 samples within the set from least sweet to most sweet. Where rank 1—is lowest in sweetness and rank 6—is highest in sweetness. Panelists cleansed their palates by rinsing with water, eating a cracker and waiting for an interval of 10 minutes. […]

[4] = test sample 4% fructose, compound 25 ppm
[5] = test sample 4% fructose, positive control fructose, compound 25 ppm
[6] = test sample 4% fructose, positive control fructose, compound 20 ppm

Q: For `COc1ccc([C@@H]2CC(=O)c3c(O)cccc3O2)cc1O` (single isomer, unassigned) [Compound 2], which “compound effects beyond the additive effect of inherent sweetness” value ([1]; pH 3, Table 7 vs Table 5) is on record?
A: super-additive effects

Q: And the “compound effects beyond the additive effect of inherent sweetness” value ([1]; pH 7, Table 6 vs Table 4)?
A: super-additive effects

Q: What about the “perceived sweetness compared to control sweetener solutions (FIG. 2)” value [1] of the same compound?
A: significant increase in perceived sweetness

Q: And the “perceived sweetness compared to control sweetener solutions (FIG. 1)” value [1]?
A: significant increase in perceived sweetness

Q: And the “Fold increase in perceived sweetness” value [2, 4]?
A: >1.20X

Q: And the “Sweetener Concentration of positive control surpassed by test sample” value (shortened to “Sweetener Concentration”) [2, 5]?
A: > 4.8%

Q: And the “Fold increase in perceived sweetness” value ([2]; test sample 5% sucrose, compound 15, 25 ppm)?
A: >1.20X

Q: And the “Sweetener Concentration” value ([2]; test sample 5% sucrose, positive control sucrose, compound 15, 25 ppm)?
A: > 6%

Q: And the “Fold increase in perceived sweetness” value ([2]; test sample 6.5% glucose, compound 10, 20, 25 ppm)?
A: >1.15X

Q: What about the “Sweetener Concentration” value ([2]; test sample 6.5% glucose, positive control glucose, compound 10, 20, 25 ppm) of the same compound?
A: > 7.48%

Q: Which results are given for `COc1ccc([C@H]2CC(=O)c3c(O)cccc3O2)cc1O` (single isomer, unassigned) [Compound 3]?
A: compound effects beyond the additive effect of inherent sweetness ([1]; pH 3, Table 7 vs Table 5): super-additive effects; compound effects beyond the additive effect of inherent sweetness ([1]; pH 7, Table 6 vs Table 4): super-additive effects; perceived sweetness compared to control sweetener solutions (FIG. 2) [1]: significant increase in perceived sweetness; perceived sweetness compared to control sweetener solutions (FIG. 1) [1]: significant increase in perceived sweetness; Fold increase in perceived sweetness [2, 4]: >1.25X; Sweetener Concentration of positive control surpassed by test sample [2, 5]: > 5%; Fold increase in perceived sweetness ([2]; test sample 5% sucrose, compound 15 ppm): >1.20X; Sweetener Concentration of positive control surpassed by test sample ([2]; test sample 5% sucrose, positive control sucrose, compound 15 ppm): > 6%; Fold increase in perceived sweetness ([2]; test sample 6.5% glucose, compound 25 ppm): >1.20X; Sweetener Concentration of positive control surpassed by test sample ([2]; test sample 6.5% glucose, positive control glucose, compound 25 ppm): > 7.8%

Q: With `COc1ccc(C2CC(=O)c3c(O)cc(OCCCC(=O)O)cc3O2)cc1O` (centres unmarked) [Compound 4, 4-((5-hydroxy-2-(3-hydroxy-4-methoxyphenyl)-4-oxochroman-7-yl)oxy)butanoic acid] as the compound, how does the “Sweetener Concentration” value [2, 6] read?
A: > 4.4%

Q: Which “Sweetener Concentration” value [2, 6] does the source give for `CCCOc1ccc(C2CC(=O)c3c(O)cc(O)cc3O2)cc1O` (centres unmarked) [Compound 5, 5,7-dihydroxy-2-(3-hydroxy-4-propoxyphenyl)chroman-4-one] here?
A: > 4.4%

Q: For `O=C1c2c(O)cc(O)cc2OC(c2ccc(O)c(O)c2)C1O` (centres unmarked) [Compound 11, 2-(3,4-dihydroxyphenyl)-3,5,7-trihydroxychroman-4-one], which “R Index Score” value [3] is on record?
A: 64

Q: With `COc1ccc(C2CC(=O)c3c(O)cc(OCCCS(=O)(=O)[O-])cc3O2)cc1O.[K+]` (centres unmarked) [Compound 14, 3-((5-hydroxy-2-(3-hydroxy-4-methoxyphenyl)-4-oxochroman-7-yl)oxy)propane-1-sulfonic acid potassium salt] as the compound, how does the “Fold increase in perceived sweetness” value ([2]; test sample 4% fructose, compound 20 ppm) read?
A: >1.1X

Q: And the “Sweetener Concentration” value [2, 6]?
A: > 4.4%

Q: Which “Sweetener Concentration” value [2, 6] does the source give for `COc1ccc(C2CC(=O)c3c(O)cc(F)cc3O2)cc1O` (centres unmarked) [Compound 15, 7-fluoro-5-hydroxy-2-(3-hydroxy-4-methoxyphenyl)chroman-4-one] here?
A: > 4.4%
